From US5348956A, “Substituted cyclopropylamino-1,3,5-triazines” (UCB S.A., priority 1991, dated 1994)
Like-named read-outs stand apart in the source and are kept apart here.

Assays:
[1] = tested on: plantar edema induced by immune complexes; assay: "reverse passive Arthus" (RPA) test, anti-inflammatory and anti-edema activity; type: in vivo, Sprague-Dawley rat; conditions: Rattus norvegicus, intravenous
Protocol: The reaction between a soluble antigen and antibodies in the organism may lead to an acute inflammatory reaction accompanied by release of histamine, modification of vascular permeability and formation of a localized edema. […] To this end, the Arthus reaction is induced by subplantar administration of 0.1 ml of heterologous antivalbumin reaginic serum into the right hind paw and by simultaneous intravenous injection of 1 ml/kg ovalbumin (25 mg/ml). The compound to be tested is administered intravenously 30 seconds before induction of the Arthus reaction, in a least 3 different doses. A group of 6 rats is used per dose of compound to be tested. The volume of the paw is measured by plethysmometry before the Arthus reaction and 3 to 5 hours after induction of the Arthus reaction, both in the control animals and in the treated animals. The effect of a compound on the reduction in the edema for each dose and at each measurement time (3 hours and 5 hours) is expressed in % of the edema observed in the control animals. The doses of the compounds (ID30 in μmole/kg) which inhibit by 30%, on average over all the animals, the volume of the edema observed in the control animals are given in Table VII below.

toxicity, Irwin's test = type: in vivo; conditions: i.p.; death of two animals out of three within 48 hours
Protocol: Progressive doses of the compound to be tested are administered intraperitoneally to groups of three mice until the lethal dose is reached (dose which causes the death of two animals out of three within 48 hours).

PMN granulocytes = assay: inhibition of the stimulation of PMN granulocytes (chemiluminescence); type: cell-based, Rat; conditions: Rattus norvegicus; 10^-6 mole/l; FMLP 3.2×10^-7 mole/liter; read-out: Residual chemiluminescence
Excerpt: Polymorphonuclear neutrophil granulocytes (PMN) are cells which are mobilized during inflammatory phenomena and which can be stimulated by various compounds, such as, for example, formylmethionyl-leucylphenylalanine (FMLP) or prostaglandins E (PGE1). The PMN granulocytes respond to these extracellular stimuli with an activation of the oxygen metabolism with release of toxic oxygenated metabolites. An excessive response of the PMN granulocytes may be the cause of a painful inflammation and is also accompanied by a reduction in the level of cyclic adenosine monophosphate (cAMP) in these granulocytes. Consequently, compounds which inhibit the respiratory burst of PMN granulocytes or which increase the level of cAMP can be regarded as very important in the treatment of arthritis and asthma. […] Rat PMN granulocytes (5×10^6 /ml) are preincubated in a phosphate buffer ([…], pH 7.4), containing luminol at a concentration of 10^-5 mole per liter, for 15 minutes at 37° C. and then for 5 minutes in the presence of the compound to be treated at a concentration of 10^-6 mole/liter. […] The luminescence which results from the stimulation is measured by means of an LKB 1251 luminometer according to the method of […] and […] (Infection and Immunology, 37, (1982), 34-39). An experimental cycle lasts 38 seconds. The reaction is repeated 9 times for each compound to be tested and the average of the results obtained is calculated.

[2] = tested on: bronchospasm induced by acetylcholine; assay: bronchospasmolytic activity (Konzett and Roessler), bronchospasm induced by acetylcholine; type: in vivo, Dunkin-Hartley guinea-pig; conditions: Cavia porcellus; intravenous; acetylcholine-induced bronchospasm; read-out: Doses (ID50), Acetylcholine
Protocol: (§1) This activity was measured in the Dunkin-Hartley guinea-pig by the method of H. KONZETT and […] (Naunyn Schmiedebergs Arch. exp. Path. […] The anesthetized (urethane) and curarized (gallamine) guinea-pig is placed under assisted respiration. The endotracheal pressure is recorded. […] The compound to be tested is also administered intravenously two minutes before the administration of the spasmogen and then in 3 to 4 cumulative doses in increasing amounts at intervals of 15 minutes. Six animals per compound to be tested and per spasmogen are used.

[3] = tested on: bronchospasm induced by serotonin; assay: bronchospasmolytic activity (Konzett and Roessler), bronchospasm induced by serotonin; type: in vivo, Dunkin-Hartley guinea-pig; conditions: Cavia porcellus; intravenous; serotonin-induced bronchospasm; read-out: Doses (ID50), Serotonin
Protocol: as §1

[4] = tested on: anaphylactic release of histamine, guinea-pig lung sections; assay: inhibition of the anaphylactic release of histamine (proper effect); type: cell-based, Dunkin-Hartley guinea-pigs; conditions: Cavia porcellus, in vitro, read-out: Minimum inhibitory dose (MID)
[5] = tested on: bronchospasm induced by histamine; assay: bronchospasmolytic activity (Konzett and Roessler), bronchospasm induced by histamine; type: in vivo, Dunkin-Hartley guinea-pig; conditions: Cavia porcellus; intravenous; histamine-induced bronchospasm; read-out: Doses (ID50), Histamine
Summary of the method: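 Anesthetized (urethane), curarized, ventilated Dunkin-Hartley guinea-pigs with endotracheal pressure recorded after histamine, serotonin or acetylcholine challenge. Compound given i.v. 2 min before spasmogen, then in 3–4 increasing cumulative doses at 15-min intervals; six animals per compound and spasmogen.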

[6] = tested on: anaphylactic release of histamine, guinea-pig lung sections; assay: potentiation of the inhibition of anaphylactic histamine release by isoprenaline; type: cell-based, Dunkin-Hartley guinea-pigs; conditions: with isoprenaline 10^-7 mole per liter
[7] = tested on: amnesia induced by scopolamine; assay: multiple-trial passive avoidance: mnemic retention, amnesia induced by scopolamine
Protocol: To this end, the method of multiple-trial passive avoidance has been used. […] The test is carried out on male Sprague-Dawley rats (160-200 g). which are kept in standard cages throughout the experiment. The apparatus used is a transparent square cage with 35 cm sides and 25 cm high, fitted with a grid floor which can be electrified. A rubber insulating mat (10×17 cm) is placed on the floor in one of the corners of the cage.
Each animal is subjected to four tests at times 0, 4, 24 and 28 hours. In the first test (time 0), the animal is placed on the rubber mat and the time which it takes to decide to leave this position to explore the cage is recorded. After 20 seconds of exploration, the rat receives an electric shock (3 seconds duration) in the paws, causing an escape reaction. The rat is immediately removed from the apparatus and replaced in its original cage. In the course of the three subsequent tests (times: 4, 24 and 28 hours), the animal is replaced on the rubber mat and the time taken to leave this position is recorded. As soon as the four paws of the animal rest on the grid, it receives an electric shock and is removed immediately from the apparatus.
At the start of the experiment, the rats are divided into 4 homogeneous groups of 15 animals. Thirty minutes before each test, each group of animals is subjected to a predetermined treatment:
Groups 1 and 2 are used in the first experiment (learning) and groups 3 and 4 in the second experiment (mnemic retention).
The differences found are analyzed statistically by the Mann-Whitney method.

[8] = 3 hours after induction of the Arthus reaction, read-out: Dose (ID30), 3 hours
[9] = 5 hours after induction of the Arthus reaction, read-out: Dose (ID30), 5 hours
[10] = 4 hours, 2.8 mg/kg i.p. + 0.5 mg scopolamine
[11] = 24 hours, 2.8 mg/kg i.p. + 0.5 mg scopolamine
[12] = 28 hours, 2.8 mg/kg i.p. + 0.5 mg scopolamine
[13] = time 0, 2.8 mg/kg i.p. + 0.5 mg scopolamine
[14] = 4 hours, 1.0 mg/kg i.p. + 0.5 mg scopolamine
[15] = 24 hours, 1.0 mg/kg i.p. + 0.5 mg scopolamine
[16] = 28 hours, 1.0 mg/kg i.p. + 0.5 mg scopolamine
[17] = time 0, 1.0 mg/kg i.p. + 0.5 mg scopolamine

Structure (SMILES)	ED30 [1, 8] [µmol/kg]	ED30 [1, 9] [µmol/kg]	Lethal dose (toxicity, Irwin's test) [mg/kg]	activity at 1 µM (PMN granulocytes) [%]	ED50 [2] [µmol/kg]	ED50 [3] [µmol/kg]	minimal effective concentration [4] [µM]	ED50 [5] [µmol/kg]	Minimum potentiating dose (MPD) [6] [µmol/L]	also measured
COC1CN(c2nc(NC3CC3)nc(C3CC3)n2)C1 [Compound 14]	16	12	156.8	51	0.5	0.2	1	0.09	0.32	Period of remaining on the mat, group 4 ([7]; 4 hours, 2.6 mg/kg i.p. + 0.5 mg scopolamine): 36.3 s; Period of remaining on the mat, group 4 ([7]; 24 hours, 2.6 mg/kg i.p. + 0.5 mg scopolamine): 73.9 s; Period of remaining on the mat, group 4 ([7]; 28 hours, 2.6 mg/kg i.p. + 0.5 mg scopolamine): 139.1 s; Period of remaining on the mat, group 4 ([7]; time 0, 2.6 mg/kg i.p. + 0.5 mg scopolamine): 11.7 s
CCCc1nc(NC2CC2)nc(N2CC3CCC(C2)O3)n1 [Compound 11]	0.5	0.4	325.8	44	0.09	0.1	1	0.1	0.32	Period of remaining on the mat, group 4 ([7]; 4 hours, 3.3 mg/kg i.p. + 0.5 mg scopolamine): 21.4 s; Period of remaining on the mat, group 4 ([7]; 24 hours, 3.3 mg/kg i.p. + 0.5 mg scopolamine): 58.6 s; Period of remaining on the mat, group 4 ([7]; 28 hours, 3.3 mg/kg i.p. + 0.5 mg scopolamine): 93.2 s; Period of remaining on the mat, group 4 ([7]; time 0, 3.3 mg/kg i.p. + 0.5 mg scopolamine): 10.7 s
CCCc1nc(NC2CC2)nc(N2CCC(O)CC2)n1 [Compound 5]	3.1	27	277.4	74	0.1	0.1	0.32	0.06	3.2	Period of remaining on the mat, group 4 [7, 10]: 34.2 s; Period of remaining on the mat, group 4 [7, 11]: 35.9 s; Period of remaining on the mat, group 4 [7, 12]: 73.3 s; Period of remaining on the mat, group 4 [7, 13]: 14.5 s
C1CC1Nc1nc(C2CC2)nc(N2CC3CCC(C2)O3)n1 [Compound 16]	1.5	2	194	42	0.05	0.009	0.1	0.009	0.032	Period of remaining on the mat, group 4 ([7]; 4 hours, 3.25 mg/kg i.p. + 0.5 mg scopolamine): 35.1 s; Period of remaining on the mat, group 4 ([7]; 24 hours, 3.25 mg/kg i.p. + 0.5 mg scopolamine): 118.5 s; Period of remaining on the mat, group 4 ([7]; 28 hours, 3.25 mg/kg i.p. + 0.5 mg scopolamine): 101.1 s; Period of remaining on the mat, group 4 ([7]; time 0, 3.25 mg/kg i.p. + 0.5 mg scopolamine): 11.3 s
CC(C)c1nc(NC2CC2)nc(N2CC3CCC(C2)O3)n1 [Compound 12]	2.5	3	325.8	36	0.2	0.06	0.1	0.04	0.1	Period of remaining on the mat, group 4 [7, 14]: 18.0 s; Period of remaining on the mat, group 4 [7, 15]: 51.1 s; Period of remaining on the mat, group 4 [7, 16]: 94.5 s; Period of remaining on the mat, group 4 [7, 17]: 3.6 s
CCc1nc(NC2CC2)nc(N2CCOCC2)n1 [Compound 2]	2.3	0.7	285	68	0.5	0.5	1	0.3	3.2	Period of remaining on the mat, group 4 [7, 14]: 18.9 s; Period of remaining on the mat, group 4 [7, 15]: 24.3 s; Period of remaining on the mat, group 4 [7, 16]: 36.5 s; Period of remaining on the mat, group 4 [7, 17]: 7.9 s
CCCc1nc(NC2CC2)nc(N(CCO)CCO)n1 [Compound 6]	12	9	635.6	55	0.3	0.1	1	0.1	1.0	Period of remaining on the mat, group 4 ([7]; 4 hours, […] i.p. + 0.5 mg scopolamine): 11.7 s; Period of remaining on the mat, group 4 ([7]; 24 hours, […] i.p. + 0.5 mg scopolamine): 24.8 s; Period of remaining on the mat, group 4 ([7]; 28 hours, […] i.p. + 0.5 mg scopolamine): 28.7 s; Period of remaining on the mat, group 4 ([7]; time 0, […] i.p. + 0.5 mg scopolamine): 5.3 s
OCCN(CCO)c1nc(NC2CC2)nc(C2CC2)n1 [Compound 7]	7.7	11	279.3	54	0.7	0.4	0.32	0.2	1.0	Period of remaining on the mat, group 4 [7, 10]: 34.5 s; Period of remaining on the mat, group 4 [7, 11]: 94.0 s; Period of remaining on the mat, group 4 [7, 12]: 133.0 s; Period of remaining on the mat, group 4 [7, 13]: 9.8 s
